Consider 34 molecules from ChEMBL document CHEMBL3044985, “Novel antitubercular diallyl/dibenzylthiosemicarbazones endowed with high activity toward multi-drug-resistant tuberculosis” (Med Chem Res, 2012).

Values after ≈ are worked out from the molar mass of the structure shown.

In data set [1] the test system is Mycobacterium tuberculosis. Briefly: Antitubercular activity against Mycobacterium tuberculosis H37Rv by NCCLS agar dilution method. Type of data set: functional. In general terms: In agar dilution, organisms are placed on agar that contains the substance at set levels.
Data set [2] is described as follows: Cytotoxicity against Chlorocebus aethiops (African green monkey) Vero cells assessed as cell viability after 72 hr by MTT assay. Type of data set: cell-based. The following applies: chlorocebus sabaeus. In general terms: Formazan colour is commonly taken as a measure of viable cells.
The subject of data set [3] is Mycobacterium tuberculosis. Description: Ratio of ofloxacin MIC to compound MIC for Mycobacterium tuberculosis H37Rv. Type of data set: functional.
A short description of data set [4]: Selectivity index, ratio of CC50 for african green monkey Vero cells to MIC for Mycobacterium tuberculosis H37Rv. Type of data set: toxicity, cell-based. The note with it: read-out: Selectivity Index.
For data set [5], the system named is Mycobacterium tuberculosis. Description: Ratio of isoniazid MIC to compound MIC for Mycobacterium tuberculosis H37Rv. Type of data set: functional.
Data set [6] deals with Mycobacterium tuberculosis. Briefly: Ratio of ethambutol MIC to compound MIC for Mycobacterium tuberculosis H37Rv. The class given is functional.

Usually MIC stands for the least concentration at which growth counts as inhibited. Broadly, the CC50 is the concentration at which the toxic effect on the cells reaches its halfway point. Molecule `S=C(NN=C(c1ccccc1)c1ccccc1)N(Cc1ccccc1)Cc1ccccc1` returned an MIC in data set [1] of 3.58 µM (≈ 1.56 µg/mL). The half-maximal cytotoxic concentration (CC50) at 72 h in data set [2] came to 143 µM.

Turning to `C=CCN(CC=C)C(=S)N/N=C(/C)CC`, inhibition of growth in data set [1] (MIC) required 111 µM (≈ 25 µg/mL).

In data set [1], `CC/C(C)=N\NC(=S)N(Cc1ccccc1)Cc1ccccc1` showed a minimum inhibitory concentration (MIC) of 76.8 µM (≈ 25 µg/mL).

In the case of `O=[N+]([O-])c1ccc(/C=N\NC(=S)N(Cc2ccccc2)Cc2ccccc2)cc1`, 0.98 µM (≈ 0.396 µg/mL) was the least that counted as inhibitory in data set [1] (MIC). In addition, the cytotoxic concentration (CC50) at 72 h in data set [2] is under 155 µM.

As to `C=CCN(CC=C)C(=S)N/N=C\c1ccc(Cl)cc1`, inhibition of growth in data set [1] (MIC) required 5.3 µM (≈ 1.56 µg/mL). Further, the CC50 at 72 h in data set [2] is 213 µM.

In turn, `S=C(N/N=C\c1ccc(Cl)cc1)N(Cc1ccccc1)Cc1ccccc1` displayed an MIC in data set [1] of 1.98 µM (≈ 0.78 µg/mL). Moreover, the CC50 at 72 h in data set [2] worked out at 159 µM.

In data set [1], `C=CCN(CC=C)C(=S)N/N=C\c1ccccc1C` displayed an MIC of 22.9 µM (≈ 6.25 µg/mL). The CC50 at 72 h in data set [2] is over 229 µM.

In turn, `Cc1ccccc1/C=N\NC(=S)N(Cc1ccccc1)Cc1ccccc1` registered an MIC in data set [1] of 8.38 µM (≈ 3.13 µg/mL). Also, the CC50 at 72 h in data set [2] stood at 167 µM.

On to `C=CCN(CC=C)C(=S)N/N=C\c1ccccc1O`, for which it took 45.4 µM (≈ 12.5 µg/mL) to inhibit growth in data set [1] (MIC).

For the molecule `Oc1ccccc1/C=N\NC(=S)N(Cc1ccccc1)Cc1ccccc1`, the MIC in data set [1] stood at 8.33 µM (≈ 3.13 µg/mL). Also, the CC50 at 72 h in data set [2] was found to be 166 µM.

In turn, `C=CCN(CC=C)C(=S)N/N=C\c1ccc([N+](=O)[O-])o1` displayed an MIC in data set [1] of 2.65 µM (≈ 0.78 µg/mL). Moreover, the CC50 at 72 h in data set [2] is under 212 µM.

Molecule `O=[N+]([O-])c1ccc(/C=N\NC(=S)N(Cc2ccccc2)Cc2ccccc2)o1` yielded an MIC in data set [1] of 0.5 µM (≈ 0.197 µg/mL). Also, in data set [2], the half-maximal cytotoxic concentration (CC50) at 72 h came out at 158 µM. For the same molecule, the values for the Ratio in data set [3], in data set [5] and in data set [6] were 4.2, 1.3 and 9.4, respectively. Besides, the selectivity ratio in data set [4] was over 316.

`C=CCN(CC=C)C(=S)N/N=C(/C)c1ccccc1` registered an MIC in data set [1] of 22.9 µM (≈ 6.25 µg/mL). Moreover, the CC50 at 72 h in data set [2] was found to be 229 µM.

`C/C(=N/NC(=S)N(Cc1ccccc1)Cc1ccccc1)c1ccccc1` displayed an MIC in data set [1] of 16.7 µM (≈ 6.25 µg/mL). Besides, in data set [2], the CC50 at 72 h is 167 µM.

In data set [1], `C=CCN(CC=C)C(=S)N/N=C(/C)c1ccccc1O` had an MIC of 21.6 µM (≈ 6.25 µg/mL). The CC50 at 72 h in data set [2] stood at 216 µM.

As to `C/C(=N/NC(=S)N(Cc1ccccc1)Cc1ccccc1)c1ccccc1O`, the MIC in data set [1] stood at 8.03 µM (≈ 3.13 µg/mL). The CC50 at 72 h in data set [2] turned out to be 160 µM.

In data set [1], `C=CCN(CC=C)C(=S)N/N=C(/C)c1ccc(O)cc1` had a minimum inhibitory concentration (MIC) of 21.6 µM (≈ 6.25 µg/mL). Also, the half-maximal cytotoxic concentration (CC50) at 72 h in data set [2] was found to be 216 µM.

For the molecule `C/C(=N/NC(=S)N(Cc1ccccc1)Cc1ccccc1)c1ccc(O)cc1`, in data set [1], it took 16.1 µM (≈ 6.26 µg/mL) to inhibit growth (MIC). Further, the CC50 at 72 h in data set [2] is 160 µM.

In the case of `C=CCN(CC=C)C(=S)N/N=C(/C)c1ccc(N)cc1`, the MIC in data set [1] amounted to 43.3 µM (≈ 12.5 µg/mL).

For `C/C(=N/NC(=S)N(Cc1ccccc1)Cc1ccccc1)c1ccc(N)cc1`, in data set [1], the MIC came to 16.1 µM (≈ 6.25 µg/mL). The CC50 at 72 h in data set [2] was determined as 161 µM.

`C=CCN(CC=C)C(=S)N/N=C(/C)c1ccc([N+](=O)[O-])cc1` showed an MIC in data set [1] of 9.83 µM (≈ 3.13 µg/mL). The CC50 at 72 h in data set [2] was under 196 µM.

Take `C/C(=N/NC(=S)N(Cc1ccccc1)Cc1ccccc1)c1ccc([N+](=O)[O-])cc1`: the MIC in data set [1] amounted to 3.72 µM (≈ 1.56 µg/mL). The CC50 at 72 h in data set [2] was under 149 µM.

In data set [1], `C=CCN(CC=C)C(=S)N/N=C(/C)c1ccc(F)cc1` displayed an MIC of 10.7 µM (≈ 3.13 µg/mL). The CC50 at 72 h in data set [2] turned out to be 214 µM.

In data set [1], `C/C(=N/NC(=S)N(Cc1ccccc1)Cc1ccccc1)c1ccc(F)cc1` gave an MIC of 7.99 µM (≈ 3.13 µg/mL). For the same molecule, the cytotoxic concentration (CC50) at 72 h in data set [2] was found to be 160 µM.

The molecule `C=CCN(CC=C)C(=S)NN=C(c1ccccc1)c1ccccc1` came in with an MIC in data set [1] of 9.33 µM (≈ 3.13 µg/mL). In addition, in data set [2], the CC50 at 72 h was 186 µM.

In turn, `C=CCN(CC=C)C(=S)N/N=C\c1ccccc1` yielded a minimum inhibitory concentration (MIC) in data set [1] of 48.2 µM (≈ 12.5 µg/mL).

`S=C(N/N=C\c1ccccc1)N(Cc1ccccc1)Cc1ccccc1`: the MIC in data set [1] came to 17.4 µM (≈ 6.26 µg/mL). Also, the CC50 at 72 h in data set [2] was determined as 174 µM.

`C=CCN(CC=C)C(=S)N/N=C\c1ccccc1[N+](=O)[O-]` displayed an MIC in data set [1] of 5.12 µM (≈ 1.56 µg/mL). In addition, in data set [2], the CC50 at 72 h was 205 µM.

Turning to `O=[N+]([O-])c1ccccc1/C=N\NC(=S)N(Cc1ccccc1)Cc1ccccc1`, 3.85 µM (≈ 1.56 µg/mL) was the least that counted as inhibitory in data set [1] (MIC). The CC50 at 72 h in data set [2] is under 155 µM.

With `C=CCN(CC=C)C(=S)N/N=C\c1ccc([N+](=O)[O-])cc1`, in data set [1], 2.56 µM (≈ 0.779 µg/mL) was the least that counted as inhibitory (MIC). In data set [2], the half-maximal cytotoxic concentration (CC50) at 72 h was under 205 µM.

In data set [1], `CC[C@@H](CO)NCCN[C@@H](CC)CO` [ETHAMBUTOL] came in with a minimal inhibitory concentration (MIC) of 4.71 µM (≈ 0.962 µg/mL). Further, the CC50 at 72 h in data set [2] is over 188 µM.

For the molecule `NNC(=O)c1ccncc1` [ISONIAZID], in data set [1], the MIC was found to be 0.66 µM (≈ 0.0905 µg/mL). In addition, the CC50 at 72 h in data set [2] is over 456 µM.

Regarding `CC1COc2c(N3CCN(C)CC3)c(F)cc3c(=O)c(C(=O)O)cn1c23` (configuration not stated) [OFLOXACIN], the MIC in data set [1] came to 2.13 µM (≈ 0.77 µg/mL). Also, in data set [2], the 50% cytotoxic concentration (CC50) at 72 h is over 155 µM.

Take `CO[C@H]1/C=C/O[C@@]2(C)Oc3c(C)c(O)c4c(O)c(c(/C=N/N5CCN(C)CC5)c(O)c4c3C2=O)NC(=O)/C(C)=C\C=C\[C@H](C)[C@H](O)[C@@H](C)[C@@H](O)[C@@H](C)[C@H](OC(C)=O)[C@@H]1C` [RIFAMPIN]: the minimum inhibitory concentration (MIC) in data set [1] was 0.23 µM (≈ 0.189 µg/mL). The CC50 at 72 h in data set [2] is over 75.9 µM.
